The values below come from patent US10023552B2, “Method of preparing a liquiritigenin precursor” (priority 2014, dated 2018).

Each structure is given as a SMILES string. Where two headings read alike, the source gives them in different places.

Data set [1] deals with human lung cancer cells A549. As to conditions: cited from earlier work.
Data set [2] deals with human liver cancer cells SMMC7721. As to conditions: cited from earlier work.
For data set [3], the system named is human leukemia cells HL-60. The settings on record: cited from earlier work.
The test system of data set [4] is human poorly differentiated gastric cancer line BGC-823. As to conditions: cited from earlier work.
Data set [5] can be described thus: Acute toxicity test (Japan Food Analysis Center). The data set is classed as in vivo. As to conditions: tested in Japan Food Analysis Center. On the procedure:
The desired product iso-liquiritigenin were tested for acute toxicity in Japan Food Analysis Center and it was confirmed that there is no toxicity.

For `COc1cccc2c1C(=O)c1c(O)c3c(c(O)c1C2=O)C[C@@](O)(C(=O)CO)C[C@@H]3O[C@H]1C[C@H](N)[C@H](O)[C@H](C)O1` [adriamycin, reference compound], the “A549 Inhibition %” value was 90.44% in data set [1] (Conc. 1 × 10^−5 Mol/l), 16.42% in data set [1] (Conc. 1 × 10^−6 Mol/l) and 16.42% in data set [1] (Conc. 1 × 10^−7 Mol/l). In addition, the “SMMC7721 Inhibition %” value is recorded as 97.47% in data set [2] (Conc. 1 × 10^−5 Mol/l), 58.40% in data set [2] (Conc. 1 × 10^−6 Mol/l) and 10.28% in data set [2] (Conc. 1 × 10^−7 Mol/l). The “HL-60 Inhibition %” value in data set [3] (Conc. 1 × 10^−5 Mol/l) is 99.09%. Also, the “BGC-823 Inhibition %” value is 97.67% in data set [4] (Conc. 1 × 10^−5 Mol/l), 45.80% in data set [4] (Conc. 1 × 10^−6 Mol/l) and 17.86% in data set [4] (Conc. 1 × 10^−7 Mol/l).

Regarding `O=C1C[C@@H](c2ccc(O)cc2)Oc2cc(O)ccc21` [Liquiritigenin, liquiritigenin], the “A549 Inhibition %” value was 7.76% in data set [1] (Conc. 1 μg/ml); 35.66% in data set [1] (Conc. 10 μg/ml); 35.06% in data set [1] (Conc. 10 μg/ml, listed as Liquiritigenin (−)); 93.03% in data set [1] (Conc. 100 μg/ml). In addition, the “SMMC7721 Inhibition %” value in data set [2] (Conc. 1 μg/ml) is 23.17%; in data set [2] (Conc. 10 μg/ml), 96.08%; in data set [2] (Conc. 100 μg/ml), 98.00%. For the same compound, the results for the “HL-60 Inhibition %” value in data set [3] (Conc. 1 μg/ml), in data set [3] (Conc. 10 μg/ml) and in data set [3] (Conc. 100 μg/ml) were 50.95%, 64.40% and 99.30%, respectively. In addition, the “BGC-823 Inhibition %” value is recorded as 24.41% in data set [4] (Conc. 1 μg/ml), 73.76% in data set [4] (Conc. 10 μg/ml) and 97.52% in data set [4] (Conc. 100 μg/ml).

As to `O=C(/C=C/c1ccc(O)cc1)c1ccc(O)cc1O` [iso-liquiritigenin], the acute toxicity entry in data set [5] is reported as “no toxicity”.
